Patent US20240307424A1, “COMPOSITION CAPABLE OF PROMOTING HAIR GROWTH, DRUG CAPABLE OF PROMOTING HAIR GROWTH, AND APPLICATION THEREOF” (GUANGXI XINHAI PHARMACEUTICAL TECHNOLOGY CO., LTD., priority 2022, published 2024)

Key:
[1] = system: hair removal area on the back of mice; test: Hair growth on the back of mice after hair removal (photos, hair growth speed score); assay type: in vivo, KM mice; conditions: twice a day, 2 weeks; for hair growth speed (score 0-3) of the hair removal area: high dose 2 mg/mL, compared with the model group
Excerpt: The experimental animals are purchased from National Institutes for Food and Drug Control with a production license No. of SCXK2017 (Jing)-0005, KM mice, male, 18-20 g. SPF grade.
Except for a normal control group, the back of all the mice in the other groups are subjected to hair removal.
The experimental animals are purchased from National Institutes for Food and Drug Control with the production license No. of SCXK2017 (Jing)-0005, KM mice, male, 18-20 g, spf grade.
Except for the normal control group, the back of all the mice in the other groups are subjected to hair removal.

[2] = system: hair follicles in the skin tissue of the hair removal area on the back of mice; test: Number of hair follicles in skin tissue of the hair removal area (HE staining); assay type: in vivo, KM mice; conditions: twice a day, 2 weeks, compared with the model group
Excerpt: After the mice are sacrificed, the skin tissue of the back is fixed, is embedded with paraffin to obtain a paraffin-embedded section, is subjected to HE staining, and is counted the number of hair follicles to evaluate the effect of hair growth promotion.

[3] = Weight of mice after administration for 2 weeks
Protocol: Animal grouping: a blank group, a model group, a Vaseline group, a pulchinenoside B4-low dose group, a pulchinenoside B4-medium dose group, a pulchinenoside B4-high dose group, a positive drug of minoxidil liniment group, 10 mice per group, pulchinenoside B4 and minoxidil liniment in each group are dissolved with Vaseline. The mice in the Vaseline group are administered Vaseline, the low dose, and medium dose and high dose of pulchinenoside B4 are 0.5, 1, and 2 mg/mL, respectively. The mice are administered twice a day, after 2 weeks of continuous administration, the skin tissue of a hair removal area on the back of the mice in each group is taken, is fixed and is subjected to HE staining, and the number of hair follicles is counted under a microscope.
Animal grouping: a blank group, a model group, a Vaseline group, a pulchinenoside B5-low dose group, a pulchinenoside B5-medium dose group, a pulchinenoside B5-high dose group, a positive drug of minoxidil liniment group, 10 mice per group, pulchinenoside B5 and minoxidil liniment in each group are dissolved with Vaseline. […] The mice are administered twice a day, after 2 weeks of continuous administration, the skin tissue of a hair removal area on the back of the mice in each group is obtained, is fixed and is subjected to HE staining, and the number of hair follicles is counted under a microscope.

[4] = medium dose 1 mg/mL in Vaseline

effect on the weight of mice [3] | SMILES | hair growth in the hair removal area on the back of mice (photos) ([1]; high dose 2 mg/mL in Vaseline) | hair growth speed (score 0-3) of the hair removal area [1] | hair growth in the hair removal area on the back of mice (photos) ([1]; low dose 0.5 mg/mL in Vaseline) | hair growth in the hair removal area on the back of mice (photos) [1, 4] | number of hair follicles in the skin tissue of the hair removal area ([2]; high dose 2 mg/mL) | number of hair follicles in the skin tissue of the hair removal area ([2]; low dose 0.5 mg/mL) | number of hair follicles in the skin tissue of the hair removal area ([2]; medium dose 1 mg/mL)
 | C=C(C)[C@@H]1CCC2(C(=O)OC3OC(COC4O[C@H](CO)C(O[C@@H]5O[C@@H](C)[C@H](O)[C@@H](O)[C@H]5O)[C@H](O)[C@H]4O)[C@@H](O)[C@H](O)[C@H]3O)CC[C@]3(C)[C@H](CC[C@@H]4[C@@]5(C)CC[C@H](O[C@@H]6OC[C@H](O)[C@H](O)[C@H]6O[C@@H]6O[C@@H](C)[C@H](O)[C@@H](O)[C@H]6O)[C@@](C)(CO)C5CC[C@]43C)[C@@H]12 (stereo partly drawn) [pulchinenoside B4] | can promote hair growth | significantly increased | can promote hair growth | can promote hair growth | significantly increase | significantly increase | significantly increase
no significant effect | C[C@@H]1O[C@@H](OC2[C@@H](CO)OC(OCC3OC(OC(=O)C45CCC(C)(C)C[C@@H]4[C@H]4CC[C@@H]6[C@@]7(C)CC[C@H](O[C@@H]8OC[C@H](O)[C@H](O)[C@H]8O[C@@H]8O[C@@H](C)[C@H](O)[C@@H](O)[C@H]8O)C(C)(CO)[C@@H]7CC[C@@]6(C)[C@]4(C)CC5)[C@H](O)[C@@H](O)[C@@H]3O)[C@H](O)[C@H]2O)[C@H](O)[C@H](O)[C@H]1O (stereo partly drawn) [pulchinenoside B5] | can promote hair growth | significantly increased | can promote hair growth | can promote hair growth | significantly increase | significantly increase | significantly increase
